According to patent US7351728B2, “Oxazolyl-aryloxyacetic acid derivatives and their use as PPAR agonists” (Eli Lilly and Company, priority 2003, dated 2008):

Legend:
huPPARα = test: Cotransfection assay in CV-1 cells, luciferase reporter (GAL4 chimeric system); assay type: cell-based, human; conditions: cotransfection efficacy relative to PPARα agonist reference molecule
Procedure: DNA-dependent binding (ABCD binding) was carried out using SPA technology with PPAR receptors. Tritium-labeled PPARα and PPARγ agonists were used as radioligands for generating displacement curves and IC50 values with compounds of the invention. Cotransfection assays were carried out in CV-1 cells. The reporter plasmid contained an acylCoA oxidase (AOX) PPRE and TK promoter upstream of the luciferase reporter cDNA. Appropriate PPARs and RXRα were constitutively expressed using plasmids containing the CMV promoter. […] In order to eliminate such interference, a GAL4 chimeric system was used in which the DNA binding domain of the transfected PPAR was replaced by that of GAL4, and the GAL4 response element was utilized in place of the AOX PPRE. Cotransfection efficacy was determined relative to PPARα agonist and PPARγ agonist reference molecules. Efficacies were determined by computer fit to a concentration-response curve, or in some cases at a single high concentration of agonist (10 μM). For binding or cotransfection studies with receptors other than PPARs, similar assays were carried out using appropriate ligands, receptors, reporter constructs, etc., for that particular receptor.
These studies were carried out to evaluate the ability of compounds of the invention to bind to and/or activate various nuclear transcription factors, particularly huPPARα (“hu” indicates “human”) and huPPARγ. These studies provide in vitro data concerning efficacy and selectivity of compounds of the invention. Furthermore, binding and cotransfection data for compounds of the invention were compared with corresponding data for marketed compounds that act on either huPPARα or huPPARγ.
Binding and cotransfection data for representative compounds of the invention are compared with corresponding data for reference compounds in Table II.

HuapoAI transgenic mice = test: Evaluation of triglyceride and cholesterol level in HuapoAI transgenic mice; assay type: in vivo; conditions: Mus musculus, 168 h, 30 mg/kg daily oral gavage 7 days; for change in vivo at 30 mg/kg: percent increase in FPLC HDLc area under the curve; for inhibition in vivo at 30 mg/kg: serum, male human apoAI transgenic mice, read-out: % Triglyceride Reduction
Procedure: Five to six week old male mice, transgenic for human apoAI [C57Bl/6-tgn(apoa1)lrub, Jackson Laboratory, Bar Harbor, Me.] were housed five per cage (10″×20″×8″ with aspen chip bedding) with food (Purina 5001) and water available at all times. After an acclimation period of 2 weeks, animals were individually identified by ear notches, weighed, and assigned to groups based on body weight. Beginning the following morning, mice were dosed daily by oral gavage for 7 days using a 20 gauge, 1½″ curved disposable feeding needle (Popper & Sons). Treatments were test compounds (30 mg/kg), a positive control (fenofibrate, 100 mg/kg) or vehicle [1% carboxymethylcellulose (w/v)/0.25% Tween80 (w/v); 0.2 ml/mouse]. Prior to termination on day 7, mice were weighed and dosed. Three hours after dosing, animals were anesthetized by inhalation of isoflurane (2-4%; Abbott Laboratories, Chicago, Ill.) and blood obtained via cardiac puncture (0.7-1.0 ml). Whole blood was transferred to serum separator tubes (Vacutainer SST), chilled on ice, and permitted to clot. Serum was obtained after centrifugation at 4° C. and frozen until analysis for triglycerides, total cholesterol, compound levels, and serum lipoprotein profile by fast protein liquid chromatography (FPLC) coupled to an inline detection system. After sacrifice by cervical dislocation, the liver, heart and epididymal fat pads were excised and weighed.
The animals dosed with vehicle had average triglycerides values of 60-80 mg/dl, which were reduced by the positive control fenofibrate (33-58 mg/dl with a mean reduction of 37%). The animals dosed with vehicle had average total serum cholesterol values of 140-180 mg/dl, which were increased by fenofibrate (190-280 mg/dl, with a mean elevation of 41%). […] Fenofibrate increased the amount of HDLc (68-96 v-sec with a mean percent increase of 48%).
Glucose was measured colorimetrically using commercially purchased reagents (Sigma #315-500). According to the manufacturers, the procedures were modified from published work (McGowan, M. W., Artiss, J. D., Strandbergh, D. R. & Zak, B. Clin Chem, 20:470-5 (1974) and Keston, A. Specific colorimetric enzymatic analytical reagents for glucose. Abstract of papers 129th Meeting ACS, 31C (1956).); and depend on the release of a mole of hydrogen peroxide for each mole of analyte, coupled with a color reaction first described by Trinder (Trinder, P. Determination of glucose in blood using glucose oxidase with an alternative oxygen acceptor. Ann Clin Biochem, 6:24 (1969)). The absorbance of the dye produced is linearly related to the analyte in the sample. The assays were further modified in our laboratory for use in a 96 well format. Standards (Sigma #339-11, Sigma #16-11, and Sigma #CC0534 for glucose triglycerides and total cholesterol, respectively), quality control plasma (Sigma # A2034), and samples (2 or 5 μl/well) were measured in duplicate using 200 μl of reagent. An additional aliquot of sample, pipetted to a third well and diluted in 200 μl water, provided a blank for each specimen. Plates were incubated at room temperature (18, 15, and 10 minutes for glucose, triglycerides and total cholesterol, respectively) on a plate shaker (DPC Micormix 5) and absorbance read at 500 nm (glucose and total cholesterol) or 540 nm (triglycerides) on a plate reader (Wallac Victor 1420). Sample absorbances were compared to a standard curve (100-800, 10-500, and 100-400 mg/dl for glucose, triglycerides and total cholesterol, respectively). Values for the quality control sample were always within the expected range and the coefficient of variation for samples was below 10%. All samples from an experiment were assayed at the same time to minimize inter-assay variability.
Serum lipoproteins were separated and cholesterol quantitated with an in-line detection system. Sample was applied to a Superose® 6 HR 10/30 size exclusion column (Amersham Pharmacia Biotech) and eluted with phosphate buffered saline-EDTA at 0.5 ml/min. […]

| SMILES | huPPARα CTF Eff. (%) (huPPARα) | change in vivo at 30 mg/kg (HuapoAI transgenic mice) | inhibition in vivo at 30 mg/kg (HuapoAI transgenic mice) |
| --- | --- | --- | --- |
| CCc1cc(OCCc2nc(-c3ccccc3)oc2C)ccc1OC(C)(C)C(=O)O [Example 30A, 2-{2-Ethyl-4-[2-(5-methyl-2-phenyloxazol-4-yl)ethoxy]phenoxy}2-methylpropionic acid] | 80% | 93% | 51.8% |
| Cc1cc(OCCc2nc(-c3ccccc3)oc2C)ccc1OC(C)(C)C(=O)O [Example 24, 2-Methyl-2-{2-methyl-4-[2-(5-methyl-2-phenyloxazol-4-yl)ethoxy]phenoxy}propionic acid] | 73% | 61% | 75% |
| CCCCc1cc(OC(C)(C)C(=O)O)ccc1OCCc1nc(-c2ccccc2)oc1C [Example 31F, 2-{3-Butyl-4-[2-(5-methyl-2-phenyloxazol-4-yl)ethoxy]phenoxy}-2-methylpropionic acid] | 70% | 79% | 35.7% |
| CCc1ccc(-c2nc(CCOc3ccc(OC(C)(C)C(=O)O)cc3)c(C)o2)cc1 [Example 13, 2-(4-{2-[2-(4-Ethylphenyl)-5-methyloxazol-4-yl]ethoxy}phenoxy)-2-methylpropionic acid] | 73% | 133% | 44.8% |
| CCCc1cc(OCCc2nc(-c3ccccc3)oc2C)ccc1OC(C)(C)C(=O)O [Example 26A, 2-Methyl-2-{4-[2-(5-methyl-2-phenyloxazol-4-yl)ethoxy]-2-propylphenoxy}propionic acid] | 75% | 43% | 35.9% |
| CCc1cccc(-c2nc(CCOc3ccc(OC(C)(C)C(=O)O)cc3)c(C)o2)c1 [Example 12, 2-(4-{2-[2-(3-Ethylphenyl)-5-methyloxazol-4-yl]ethoxy}phenoxy)-2-methylpropionic acid] | 68% | 180% | 74.3% |
| Cc1oc(-c2cccc(CCc3ccccc3)c2)nc1CCOc1ccc(OC(C)(C)C(=O)O)cc1 [Example 12A, 2-Methyl-2-(4-{2-[5-methyl-2-(3-phenethylphenyl)oxazol-4-yl]ethoxy}phenoxy)-propionic acid] | 74% | 47% | – |
| Cc1oc(-c2cccc(Br)c2)nc1CCOc1ccc(OC(C)(C)C(=O)O)cc1 [Example 9A, 2-(4-{2-[2-(3-Bromophenyl)-5-methyloxazol-4-yl]ethoxy}phenoxy)-2-methylpropionic acid] | 82% | 118% | 67.1% |
| Cc1oc(-c2ccccc2)nc1CCOc1ccc(OC(C)(C)C(=O)O)cc1 [Example 1, 2-Methyl-2-{4-[2-(5-methyl-2-phenyloxazol-4-yl)ethoxy]phenoxy}propionic acid] | 72% | 77% | 79.2% |
| CCCc1cc(OCCc2nc(-c3ccccc3)oc2C)ccc1OCC(=O)O [Example 26, {4-[2-(5-methyl-2-phenyl-oxazol-4-yl)ethoxy]-2-propylphenoxy}acetic acid] | 35% | 19% | 25.5% |
| Cc1oc(-c2ccccc2)nc1CCOc1ccc(OC(C)(C)C(=O)O)c(CCc2ccccc2)c1 [Example 30J, 2-Methyl-2-{4-[2-(5-methyl-2-phenyloxazol-4-yl)ethoxy]-2-phenethylphenoxy}propionic acid] | 90% | 77% | – |
| Cc1oc(-c2ccccc2)nc1CCOc1ccc(OC(C)(C)C(=O)O)c(CC(C)C)c1 [Example 30C, 2-{2-Isobutyl-4-[2-(5-methyl-2-phenyloxazol-4-yl)ethoxy]phenoxy}-2-methylpropionic acid] | 67% | 31% | 6.2% |
| Cc1oc(-c2ccccc2)nc1CCOc1ccc(OC(C)(C)C(=O)O)c(Cc2ccccc2)c1 [Example 32, 2-{2-Benzyl-4-[2-(5-methyl-2-phenyloxazol-4-yl)ethoxy]phenoxy}-2-methylpropionic acid] | 82% | 20% | – |
| Cc1oc(-c2ccc(OC3CCCCC3)cc2)nc1CCOc1ccc(OC(C)(C)C(=O)O)cc1 [Example 21, 2-(4-{2-[2-(4-Cyclohexyloxy-phenyl)-5-methyl-oxazol-4-yl]-ethoxy}-phenoxy)-2-methyl-propionic acid] | 78% | 9% | – |
| CCCc1cc(OC(C)(C)C(=O)O)ccc1OCCc1nc(-c2ccccc2)oc1C [Example 27A, 2-Methyl-2-{4-[2-(5-methyl-2-phenyloxazol-4-yl)ethoxy]-3-propylphenoxy}propionic acid] | 95% | 52% | 29.5% |
| Cc1oc(-c2ccccc2)nc1CCOc1ccc(OC(C)(C)C(=O)O)c2ccccc12 [Example 37, 2-Methyl-2-{4-[2-(5-methyl-2-phenyl-oxazol-4-yl)-ethoxy]-naphthalen-1-yloxy}-propionic acid] | 91% | 94% | 29.9% |
| Cc1oc(-c2ccccc2)nc1CCOc1ccc(OC(C)(C)C(=O)O)c2c1CCCC2 [Example 38, 2-Methyl-2-{4-[2-(5-methyl-2-phenyl-oxazol-4-yl)-ethoxy]-5,6,7,8-tetrahydro-naphthalen-1-yloxy}-propionic acid] | 80% | 86% | 39% |
